Laboratory results from patent publication US20260308172A1, “TRICYCLIC COMPOUNDS FOR TREATMENT OF BACTERIAL INFECTIONS” (priority 2023, published 2026).
Values after ≈ are worked out from the molar mass of the structure shown.

Legend:
[1] = Human Microsome Stability Assay; type: in vitro ADME; conditions: 1 μM compound, 0.5 mg/mL liver microsomal protein, 1 mM NADPH, pH 7.4, 37° C., 0-30 minutes; for CLint scaled at 1 µM: human, liver microsomes, read-out: Clearance of Human microsome
Method: The human microsomal stability assay is used for early assessment of metabolic stability of compounds of present invention in human liver microsomes. Human liver microsomes (Cat. NO.: 452117, Corning, USA) were pre-incubated with test compound for 10 minutes at 37° C. in 100 mM potassium phosphate buffer, pH 7.4. The reactions were initiated by adding NADPH regenerating system. The final incubation mixtures contained 1 μM compound, 0.5 mg/mL liver microsomal protein, 1 mM MgCl2 and 1 mM NADPH in 100 mM potassium phosphate buffer, pH 7.4. After incubation times of 0, 3, 6, 9, 15 and 30 minutes at 37° C., 300 μL of cold acetonitrile (including internal standard) was added to 100 μL incubation mixture to terminate the reaction. Following precipitation and centrifugation, the amount of compound remaining in the samples were determined by LC-MS/MS. Controls of no NADPH regenerating system at zero and 30 minutes were also prepared and analyzed.

[2] = test system: Klebsiella pneumonia ATCC 43816; assay: Minimal Inhibitory Concentration (MIC) assay, Klebsiella pneumonia ATCC 43816; type: cell-based; conditions: Klebsiella pneumoniae, ATCC43816, 20 h, read-out: MIC Klebsiella pneumoniae ATCC43816
Procedure, shortened: (§1)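 Broth microdilution in cation-adjusted Mueller Hinton broth with 2-fold serial compound dilutions, inoculum 5×10^5 CFU/mL. Plates incubated 20 h at 35 °C in ambient air. MIC (μg/mL) is the lowest concentration preventing visible growth; K. pneumoniae 43816 is a rifampin-resistant mutant.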

[3] = test system: Escherichia coli ATCC 25922; assay: Minimal Inhibitory Concentration (MIC) assay, Escherichia coli ATCC 25922; type: cell-based; conditions: ATCC25922, 20 h, read-out: MIC Escherichia coli ATCC25922
Procedure, shortened: as §1

LPS synthesis pathway = conditions: in words; Bioorganic Chemistry 102 (2020) 104055; cited from earlier work
[4] = test system: efflux-deficient E. coli strains; conditions: in words; Bioorganic Chemistry 102 (2020) 104055; cited from earlier work

| Compound | CLint scaled at 1 µM [1] [L/h/kg] | MIC [2] [mg/L] | MIC [3] [mg/L] | LPS synthesis pathway inhibition activity (LPS synthesis pathway) | antibiotic activity against efflux-deficient E. coli strains [4] | Clearance of Human microsome [1] [L/h/kg] |
| --- | --- | --- | --- | --- | --- | --- |
| CC(=O)N1CCc2cc(S(=O)(=O)N3CCN(c4cc(Cl)cc(C(F)(F)F)c4)CC3)ccc21 [Compound F-1, reference compound] | 0.84 | > 24 | > 24 | having LPS synthesis pathway inhibition activity | displaying antibiotic activity against efflux-deficient E. coli strains |  |
| NCCCNC(=O)[C@H]1CC[C@H](C(F)(F)c2cc(Cl)nc(N3CCN(S(=O)(=O)c4ccc5c(c4)OC[C@H]4[C@H](CO)OC(=O)N54)CC3)c2)CC1 [Example 049, 4-[[2-[4-[[(3R,3aS)-3-(hydroxymethyl)-1-oxo-3a,4-dihydro-3H-oxazolo[4,3-c][1,4]benzoxazin-7-yl]sulfonyl]piperazin-1-yl]-6-chloro-4-pyridyl]-difluoro-methyl]-N-(3-aminopropyl)cyclohexanecarboxamide] |  | 0.29 (≈ 0.407 µM) | 0.3 (≈ 0.421 µM) |  |  | 0.372 |
| NCC(=O)N1CCC(C(F)(F)c2cc(Cl)nc(N3CCN(S(=O)(=O)c4ccc5c(c4)OC[C@@H]4[C@H](CO)OC(=O)N54)CC3)c2)CC1 [Example 053, (3R,3aR)-7-[4-[4-[[1-(2-aminoacetyl)-4-piperidyl]-difluoro-methyl]-6-chloro-2-pyridyl]piperazin-1-yl]sulfonyl-3-(hydroxymethyl)-3a,4-dihydro-3H-oxazolo[4,3-c][1,4]benzoxazin-1-one] | 0.732 | 0.61 (≈ 0.909 µM) | 0.61 (≈ 0.909 µM) |  |  |  |
| O=C1O[C@H](CO)[C@H]2COc3cc(S(=O)(=O)N4CCN(c5cc(C(F)(F)C6CCNCC6)cc(Cl)n5)CC4)ccc3N12 [Example 037, (3S,3aR)-7-[4-[6-chloro-4-[difluoro(4-piperidyl)methyl]-2-pyridyl]piperazin-1-yl]sulfonyl-3-(hydroxymethyl)-3a,4-dihydro-3H-oxazolo[4,3-c][1,4]benzoxazin-1-one] | 0.654 | 1.14 (≈ 1.86 µM) | 1.1 (≈ 1.79 µM) |  |  |  |
| O=C1O[C@H](CO)[C@@H]2COc3cc(S(=O)(=O)N4CCN(c5cc(C(F)(F)C6CCCNC6)cc(Cl)n5)CC4)ccc3N12 (relative stereo) [Example 033] | 0.816 | 1.55 (≈ 2.52 µM) | 1 (≈ 1.63 µM) |  |  |  |
| NCCC(=O)N1CCC(C(F)(F)c2cc(Cl)nc(N3CCN(S(=O)(=O)c4ccc5c(c4)OC[C@@H]4[C@H](CO)OC(=O)N54)CC3)c2)CC1 [Example 054, (3R,3aR)-7-[4-[4-[[1-(3-aminopropanoyl)-4-piperidyl]-difluoro-methyl]-6-chloro-2-pyridyl]piperazin-1-yl]sulfonyl-3-(hydroxymethyl)-3a,4-dihydro-3H-oxazolo[4,3-c][1,4]benzoxazin-1-one] | 0.384 | 0.62 (≈ 0.905 µM) | 0.62 (≈ 0.905 µM) |  |  |  |
| NC[C@H]1OC(=O)N2c3ccc(S(=O)(=O)N4CCN(c5cc(C(F)(F)C6CCCNC6)cc(Cl)n5)CC4)cc3OC[C@H]12 (relative stereo) [Example 009] |  | 0.66 (≈ 1.08 µM) | 0.66 (≈ 1.08 µM) |  |  | 0.372 |
| NC(=O)C[N+]1(CCNC(=O)[C@H]2CC[C@H](C(F)(F)c3cc(Cl)nc(N4CCN(S(=O)(=O)c5ccc6c(c5)OC[C@@H]5[C@H](CO)OC(=O)N65)CC4)c3)CC2)CCCC1.[Cl-] [Example 063, 4-[[2-[4-[[(3R,3aR)-3-(hydroxymethyl)-1-oxo-3a,4-dihydro-3H-oxazolo[4,3-c][1,4]benzoxazin-7-yl]sulfonyl]piperazin-1-yl]-6-chloro-4-pyridyl]-difluoro-methyl]-N-[2-[1-(2-amino-2-oxo-ethyl)pyrrolidin-1-ium-1-yl]ethyl]cyclohexanecarboxamide; chloride] | 0.612 | 2.01 | 2 |  |  |  |
| NCCC(=O)NC1CCC(Oc2cc(Cl)nc(N3CCN(S(=O)(=O)c4ccc5c(c4)OC[C@H]4[C@H](CO)OC(=O)N54)CC3)c2)CC1 (stereo partly drawn) [Example 051, N-[4-[[2-[4-[[(3R,3aS)-3-(hydroxymethyl)-1-oxo-3a,4-dihydro-3H-oxazolo[4,3-c][1,4]benzoxazin-7-yl]sulfonyl]piperazin-1-yl]-6-chloro-4-pyridyl]oxy]cyclohexyl]-3-amino-propanamide] | 0.786 | 3.65 (≈ 5.49 µM) | 3.7 (≈ 5.56 µM) |  |  |  |
| O=C1O[C@@H](CO)[C@H]2COc3cc(S(=O)(=O)N4CCN(c5cc(C(F)(F)C6CCNCC6)cc(Cl)n5)CC4)ccc3N12 [Example 028, (3R,3aR)-7-[4-[6-chloro-4-[difluoro(4-piperidyl)methyl]-2-pyridyl]piperazin-1-yl]sulfonyl-3-(hydroxymethyl)-3a,4-dihydro-3H-oxazolo[4,3-c][1,4]benzoxazin-1-one] | 0.63 | 0.57 (≈ 0.928 µM) | 0.57 (≈ 0.928 µM) |  |  |  |
| Cc1cc(C(F)(F)F)nc(N2CCN(S(=O)(=O)c3ccc4c(c3)OC[C@H]3[C@@H](CN5CC(N)C5)OC(=O)N43)CC2)n1 [Example 025, (3R,3aS)-3-[(3-aminoazetidin-1-yl)methyl]-7-[4-[4-methyl-6-(trifluoromethyl)pyrimidin-2-yl]piperazin-1-yl]sulfonyl-3a,4-dihydro-3H-oxazolo[4,3-c][1,4]benzoxazin-1-one] | 0.732 | 1.82 (≈ 3.12 µM) | 0.91 (≈ 1.56 µM) |  |  |  |
